Assay results published in patent US20120231042A1, “Pharmaceutical Formulation For Producing Rapidly Disintegrating Tablets” (BASF SE, priority 2011, published 2012).

Assay: Film formation test
Type: physicochemical
Settings: assessed visually; for Clear film / Notes (film-forming classification): 15% by weight solution in water, dried at 45° C. for 4 hours; for Structure formed after drying (film-forming property): 15% solution dried 4 hours at 45° C., statement in description
Method: In various embodiments, to determine the film-forming property, 30.0 g of a 15% strength by weight solution of the sugar or sugar alcohol in water are first prepared at 23° C. This solution is poured out onto glass plates with an indentation (dimension: 20 cm×6.5 cm, indentation 0.3 cm) and dried for 4 hours at 45° C. and then assessed visually. Measurement can take place in ambient air. The ambient air here has a relative humidity of about 40% at 23° C. Drying can take place for example, on the heating plate of a film-drawing instrument. A suitable film-drawing instrument is for example a commercial instrument such as the COATMASTER 509 MC.
Products which are present after the drying operation as a clear film or covering are referred to as “film-forming” If crystals are visible and the mass appears powdery, the substances are classified as “non-film-forming”
To determine the film-forming property, firstly, at 23° C., 30.0 g of a 15% strength by weight solution of the sugar or sugar alcohol in water were prepared. This solution was poured onto glass plates with an indentation (dimension: 20 cm×6.5 cm, indentation 0.3 cm) and dried at 45° C. for 4 hours and then assessed visually. […] Drying was carried out on a heating plate of the film-drawing instrument COATMASTER 509 MC (Erichsen).

Row | Clear film | Notes (film-forming classification) | Structure formed after drying (film-forming property) | Molecule
1 | No | Crystals; non-film-forming | crystals or a powdery structure | OC[C@@H](O)[C@@H](O)CO [Erythritol]
2 | Yes | Film-forming | clear film/covering | OC[C@@H](O)[C@@H](O[C@@H]1O[C@H](CO)[C@H](O)[C@H](O)[C@H]1O)[C@H](O)[C@@H](O)CO [Lactitol]
3 | Yes | Film-forming | clear film/covering | OC[C@@H](O)[C@@H](O[C@H]1O[C@H](CO)[C@@H](O)[C@H](O)[C@H]1O)[C@H](O)[C@@H](O)CO [Maltitol]
4 | No | Crystals; non-film-forming | crystals or a powdery structure | OC[C@@H](O)[C@@H](O)[C@H](O)[C@H](O)CO [Mannitol]
5 | Yes | Film-forming | clear film/covering | OC[C@@H](O)[C@@H](O)[C@H](O)[C@@H](O)CO [Sorbitol]
6 | No | Crystals; non-film-forming | crystals or a powdery structure | OC[C@@H](O)[C@H](O)[C@@H](O)CO [Xylitol]
7 |  |  | clear film/covering | OC[C@H]1O[C@@H](O[C@H]2[C@H](O)[C@@H](O)C(O)O[C@@H]2CO)[C@H](O)[C@@H](O)[C@H]1O (stereo partly drawn) [lactose]
8 |  |  | clear film/covering | OC[C@H]1O[C@@](CO)(O[C@H]2O[C@H](CO)[C@@H](O)[C@H](O)[C@H]2O)[C@@H](O)[C@@H]1O [sucrose]
9 |  |  | clear film/covering | OC[C@H]1O[C@H](O[C@H]2O[C@H](CO)[C@@H](O)[C@H](O)[C@H]2O)[C@H](O)[C@@H](O)[C@@H]1O [trehalose]
10 | Yes | Film-forming | clear film/covering | Palatinit
